Test results published in article PMC11464777, “Approved drugs successfully repurposed against Leishmania based on machine learning predictions” (Frontiers in Cellular and Infection Microbiology, 2024).
In brackets after ≈: the same amount, converted by molar mass. Like-named read-outs stand apart in the source and are kept apart here.

Assays:
[1] = system: L. infantum (LV50 and Drep-14) and L. major (Empa-12) promastigotes; test: MTT promastigote viability assay, stated across the three strains; assay type: cell-based, Leishmania infantum, Leishmania major; settings: 72 h; for Effect on promastigote viability: three strains, at the tested concentrations; for IC50: Leishmania infantum, LV50, Drep-14, Empa-12, MTT, read-out: Promastigotes IC50, span over the three strains
Excerpt: (§1) Three Tunisian laboratory strains already described ([Oualha et al., 2019]), originally isolated from distinct clinical manifestations were used in this study: (i) L. infantum LV50 MHOM/TN/94/LV50) strain originating from a bone marrow of a visceral leishmaniasis patient, (ii) L. infantum Drep-14 (MHOM/TN/96/Drep-14) strain isolated from a lesion of a sporadic cutaneous leishmaniasis patient and (iii) L. major Empa-12 (MHOM/TN/2012/Empa-12) strain isolated from a zoonotic cutaneous leishmaniasis patient. Stocks of these parasites obtained after passage through BALB/c mice were used as previously described ([Oualha et al., 2019]). Thawed cryopreserved parasites were cultured at 22°C in RPMI-1640/Glutamax medium (Gibco BRL, Germany) containing penicillin (100 U/mL) and streptomycin (100 μg/mL) supplemented with 10% heat-inactivated Fetal Bovine Serum (FBS) (Gibco BRL, Germany).
(§2) The effect of the selected compounds on the viability of Leishmania promastigotes was evaluated by a colorimetric MTT (3-(4,5-dimethylthiazol-2yl)-2,5-diphenyl tetrazolium bromide) assay. It consists in the reduction of tetrazolium salt to a […] crystal (blue formazan) by the succinate dehydrogenase activity of mitochondria in living cells, which can be quantified by spectrophotometry. Briefly, 90 μL of promastigotes (5 × 10^5 parasites/well) harvested from the stationary growth phase of each strain were added to a 96-well culture plate and incubated with 10 μL of a range of serial dilutions of the selected compounds in technical replicates (final concentration of 1% DMSO per well) ([Ioset et al., 2009]; [Harigua-Souiai et al., 2018]). […] After 72h of incubation at 22°C, 25 μl of MTT solution (5 mg/mL) was added to each well and incubated at 22°C for 4h. Then, 150 μl of DMSO was added to each well to dissolve the blue formazan and the optical density (OD) was measured at 570 nm with a microplate reader ([…], Labsystems). Promastigotes incubated in complete medium containing 1% DMSO were used as negative control. The standard anti-Leishmania drug, Amphotericin B was used as a positive control. All experiments were performed in two technical replicates and repeated three times in independent experiments. The mean percentage of promastigotes viability was calculated from the Optical Density at 570 nm as follows:
(§3) Promastigote viability (%)= [(ODcompound− ODblank)/(ODnegative control −ODblank)]*100
(§4) Results were expressed as the mean value of the percentage of promastigotes viability ± standard deviation (SD).

[2] = system: L. infantum LV50 promastigotes; test: MTT-based promastigote viability assay, L. infantum LV50; assay type: cell-based; settings: Leishmania infantum
Excerpt: as §1, §2, §3, §4

[3] = system: L. infantum Drep-14 promastigotes; test: microbe, parasite or virus in culture; assay type: cell-based; settings: Leishmania infantum
Excerpt: as §1, §2, §3, §4

[4] = system: L. major Empa-12 promastigotes; test: MTT-based promastigote viability assay, L. major Empa-12; assay type: cell-based; settings: Leishmania major
Excerpt: as §1, §2, §3, §4

[5] = Cytotoxicity assay towards THP-1-derived macrophages (MTT); assay type: cell-based, human; settings: human, THP-1-derived macrophages (PMA-differentiated); for CC50 at 72 h: 72 h of treatment, uninfected cells, MTT; for viability at 72 h, 200 µg/mL: at 200 µg/mL
Procedure: (§5) Louis, MO, USA). The PMA-treated THP-1 cells were maintained in this condition for 24 h, followed by a 24 h of rest period after the removal of PMA. […] The cytotoxicity towards THP-1-derived macrophages was assessed after 24, 48 and 72 hours of incubation by MTT assay as described above. […] The percentage of viable cells was calculated from the Optical Density at 570 nm as follows: […]

[6] = system: THP-1-derived macrophages; test: as above; assay type: cell-based, human; settings: for Cytotoxicity on THP-1-derived macrophages: 24, 48, 72 h
Procedure: as §5

[7] = system: L. infantum LV50 intracellular amastigotes; test: Anti-amastigote assay in THP-1-derived macrophages, L. infantum LV50; assay type: cell-based, Leishmania infantum; settings: for Selectivity Index (SI): CC50 THP-1 / IC50 amastigotes LV50, 72 h; for IC50: Leishmania infantum, Macrophage, LV50, intramacrophage, 72 h
Procedure: (§6) THP-1-derived macrophages (5 × 10^4/well) were seeded in each 8-well Labtek slides (Thermo Scientific). Adherent macrophages were obtained as described above, then infected with stationary phase promastigotes of each strain at a ratio 10:1 (10 parasites/macrophage) in RPMI medium containing penicillin (100 U/mL) and streptomycin (100 μg/mL) with 10% fetal bovine serum (Gibco, Brazil) at 37°C in 5% CO2 for 24 h. […] Non-infected control cells were incubated in a supplemented RPMI medium containing 1% DMSO. After 72h of incubation, cells were fixed and stained using May-Grunwald-Giemsa staining with RAL 555 Kit (RAL DIAGNOSTICS, France), following the manufacturer’s instructions. The percentage of infected cells and the total number of internalized parasites per 100 macrophages were determined under immersion oil (magnification of 1000X) using light microscopy. The percentage of amastigotes viability was expressed as the percentage of total number of internalized parasites within treated cells relative to the total number of internalized parasites within control cells treated with 1% DMSO, and calculated as follows:
(§7) Relative amastigote viability (%) = [(number of amastigotes/100 treated cells)/(number of amastigotes/100 treated cells with1% DMSO)] * 100
(§8) The relative percentage of amastigote viability was evaluated to calculate half inhibitory concentrations (IC50). The mean IC50 values were determined by plotting the curves of the logarithm of compound concentrations versus the relative amastigote viability of three independent experiments performed in two technical replicates for each compound fitted into a nonlinear regression model, using GraphPad Prism version 8.0.1. Selectivity Index (SI) values were calculated as the ratio between cytotoxicity and activity against amastigotes and determined for each compound as follows: SI= CC50/IC50.

[8] = system: L. infantum Drep-14 intracellular amastigotes; test: Anti-amastigote assay in THP-1-derived macrophages, L. infantum Drep-14; assay type: cell-based, Leishmania infantum; settings: for Selectivity Index (SI): CC50 THP-1 / IC50 amastigotes Drep-14, 72 h; for IC50: Leishmania infantum, Macrophage, Drep-14, intramacrophage, 72 h
Procedure: as §6, §7, §8

[9] = system: L. major Empa-12 intracellular amastigotes; test: Anti-amastigote assay in THP-1-derived macrophages, L. major Empa-12; assay type: cell-based, Leishmania major; settings: for Selectivity Index (SI): CC50 THP-1 / IC50 amastigotes Empa-12, 72 h; for IC50: Leishmania major, Macrophage, Empa-12, intramacrophage, 72 h
Procedure: as §6, §7, §8

[10] = system: L. major and L. infantum amastigotes; test: Anti-amastigote assay, stated across the three strains; assay type: cell-based, Leishmania infantum, Leishmania major; settings: 72 h, LV50, Drep-14, Empa-12; intramacrophage, 72 h; read-out: Amastigotes IC50, span over the three strains
Procedure: as §6, §7, §8

[11] = system: Leishmania (Viannia) braziliensis; parameters: method as in Cazorla et al., 2004; settings: hamsters infected with Leishmania (Viannia) braziliensis, versus Glucantime; ref Cazorla et al., 2004; cited from earlier work
[12] = LV50, 72 h, MTT, read-out: Promastigotes IC50
[13] = LV50, 72 h, MTT, read-out: Promastigotes IC50 (in brackets) (converted)
[14] = 72 h, read-out: Promastigotes IC50
[15] = 72 h, read-out: Promastigotes IC50 (in brackets)
[16] = Empa-12, 72 h, MTT, read-out: Promastigotes IC50
[17] = Empa-12, 72 h, MTT, read-out: Promastigotes IC50 (in brackets) (converted)
[18] = read-out: THP-1-derived macrophages CC50
[19] = read-out: THP-1-derived macrophages CC50 (in brackets) (converted)
[20] = read-out: Amastigotes IC50 (in brackets) (converted)

Compound	Effect on promastigote viability [1]	IC50 [2, 12] [µg/mL]	IC50 [2, 13] [µM]	IC50 [3, 14] [µg/mL]	IC50 [3, 15] [µM]	IC50 [4, 16] [µg/mL]	IC50 [4, 17] [µM]	CC50 at 72 h [5, 18] [µg/mL]	CC50 at 72 h [5, 19] [µM]	viability at 72 h, 200 µg/mL ([5]; read-out: Macrophage viability) [%]	Cytotoxicity on THP-1-derived macrophages [6]	Selectivity Index (SI) [7]	IC50 ([7]; read-out: Amastigotes IC50) [µg/mL]	IC50 [7, 20] [µM]	Selectivity Index (SI) [8]	IC50 ([8]; read-out: Amastigotes IC50) [µg/mL]	IC50 [8, 20] [µM]	Selectivity Index (SI) [9]	IC50 ([9]; read-out: Amastigotes IC50) [µg/mL]	IC50 [9, 20] [µM]	further results
CCc1cc(C(N)=S)ccn1 [Ethionamide]	no effectiveness																				
Nc1nc(O)c2ncn(COC(CO)CO)c2n1 [Ganciclovir]	no effectiveness																				
CNC[C@H](O)c1cccc(O)c1 [Phenylephrine]	dose-dependent decrease of parasite viability	> 200	> 1200	> 200	> 1200	> 200	> 1200	> 200	> 1200	90 to 100	no significant cytotoxicity	> 5.68	35.2 ± 4.86	211 ± 174	> 4.96	40.2 ± 3.15	241 ± 113	> 2.99	66.8 ± 7.28	400 ± 260	IC50 ([2]; LV50, extrapolated beyond tested range (200 µg/mL), GraphPad, read-out: Promastigotes IC50 estimated through extrapolation): 219 ± 25.5 µg/mL; IC50 ([3]; read-out: Promastigotes IC50 estimated through extrapolation): 275 ± 36.6 µg/mL; IC50 ([4]; Empa-12, extrapolated beyond tested range (200 µg/mL), GraphPad, read-out: Promastigotes IC50 estimated through extrapolation): 266 ± 79.5 µg/mL; IC50 [1]: > 200 µg/mL
CCCNC(C)C(=O)Nc1ccccc1C (stereo not drawn) [Prilocaine]	dose-dependent decrease of parasite viability	45.8 ± 2.46	208	34.8 ± 3.22	158	33.1 ± 2.3	150	> 200	> 1820	90 to 100	no significant cytotoxicity	> 15.25	26.2 ± 3.14	119	> 13.14	30.4 ± 2.3	138	> 13.02	30.7 ± 2.2	139	viability ([5]; at the IC50 value on the promastigotes, read-out: Macrophage viability): 90 to 100%; Concentration at which cytotoxic effects start ([6]; 72 h of incubation): 400 µg/mL; IC50 [1]: 33.1 to 45.8 µg/mL (≈ 150 to 208 µM); IC50 [10]: 13.8 to 66.8 µg/mL (≈ 62.8 to 303 µM)
CCN(CC)CCOC(=O)c1ccc(N)cc1 [Procaine]																					Efficacy of intralesional treatment in hamsters [11]: lower efficacy
